Experiments:
hCA I = hCA I (Homo sapiens, UniProt P00915); test: Stopped flow CO2 hydrase assay
HCT-15 = test: NCI-60 single-dose antiproliferative assay (SRB); type: cell-based; settings: Homo sapiens; 10 μM single dose; HCT-15, Colon cancer; read-out: Cell Growth inhibition Percent
Description: (§1) From the newly synthesized compounds, eleven compounds (4c, 4d, 5, 9a, 9b, 11a, 11b, 13b, 13c, 15b, and 15c) were selected by the National Cancer Institute (NCI) Developmental Therapeutics Program (DTP), Bethesda, Maryland, USA for the in vitro anti-proliferative activity evaluation. The selected compounds were examined at 10 μM dose against the NCI 60-cell line panel. This panel consists of nine cell line groups of leukemia, non-small cell lung carcinoma (NSCLC), melanoma, colon, CNS, ovarian, renal, prostate, and breast cancers. The results are reported as mean-graph of the percent growth relative to control and presented as percentage growth inhibition (GI%), furthermore, mean GI% of each compound over all panel cell lines was calculated (Table 1; Additional file 1; S3: In vitro biological activity).
(§2) From the newly synthesized compounds, eleven compounds were selected by the National Cancer Institute (NCI) Developmental Therapeutics Program (DTP), Bethesda, Maryland, USA for the in vitro anti-proliferative activity evaluation (For further details see supplementary materials).
(§3) NCI In-vitro Cancer Screening is a two-phase procedure that starts with the assessment of all compounds against the sixty NCI cell line panel depicting leukemia, NSCLC, CNS cancer, melanoma, prostate cancer, breast cancer, renal cancer, colon cancer and ovarian cancer cell lines at a single point of 10μM. The output from the single-dose screen is reportable as a mean graph.
(§4) The human tumor cell lines of the cancer screening panel were grown in RPMI 1640 medium containing 5% fetal bovine serum and 2 mM L-glutamine. For a typical screening experiment, cells were inoculated into 96 well microtiter plates in […] at plating densities ranging from 5000 to 40,000 cells/well depending on the doubling time of individual cell lines. After cell inoculation, the microtiter plates were incubated at 37 °C, 5% CO2, 95% air and 100% relative humidity for 24 h prior to addition of experimental drugs. After 24 h, two plates of each cell line were fixed in situ with trichloroacetic acid (TCA), to represent a measurement of the cell population for each cell line at the time of drug addition (Tz). Experimental drugs were solubilized in dimethyl sulfoxide at 400-fold the desired final maximum test concentration and stored frozen prior to use. At the time of drug addition, an aliquot of frozen concentrate was thawed and diluted to twice the desired final maximum test concentration with complete medium containing 50 µg/ml gentamicin. Aliquot of 100 µl of the drug dilution was added to the appropriate microtiter wells already containing 100 µl of medium, resulting in the required final drug concentration (10 µM). Triplicate wells were prepared for each individual dose. Following drug addition, the plates were incubated for an additional 48 h at 37 °C, 5% CO2, 95% air, and 100% relative humidity. For adherent cells, the assay was terminated by the addition of cold TCA. Cells were fixed in situ by the gentle addition of 50 µl of cold 50% (w/v) TCA (final concentration, 10% TCA) and incubated for 60 min at 4 °C. The supernatant was discarded, and the plates were washed five times with tap water and air dried. Sulforhodamine B (SRB) solution (100 µl) at 0.4% (w/v) in 1% acetic acid was added to each well, and plates were incubated for 10 min at room temperature. After staining, unbound dye was removed by washing five times with 1% acetic acid and the plates were air dried. Bound stain was subsequently solubilized with 10 mM trizma base, and the absorbance was read on an automated plate reader at a wavelength of 515 nm. For suspension cells, the methodology was the same except that the assay was terminated by fixing settled cells at the bottom of the wells by gently adding 50 µl of 80% TCA (final concentration, 16% TCA). […]

NCI-H226 = test: NCI-60 single-dose antiproliferative assay (SRB); type: cell-based; settings: Homo sapiens; 10 μM single dose; NCI-H226, Non-small cell lung cancer; read-out: Cell Growth inhibition Percent
Description: as §1, §2, §3, §4

MCF7 = test: NCI-60 single-dose antiproliferative assay (SRB); type: cell-based; settings: Homo sapiens; 10 μM single dose; MCF7, Breast cancer; read-out: Cell Growth inhibition Percent
Description: as §1, §2, §3, §4

SNB-75 = test: NCI-60 single-dose antiproliferative assay (SRB); type: cell-based; settings: Homo sapiens; 10 μM single dose; SNB-75, CNS cancer; read-out: Cell Growth inhibition Percent
Description: as §1, §2, §3, §4

HOP-62 = test: NCI-60 single-dose antiproliferative assay (SRB); type: cell-based; settings: Homo sapiens; 10 μM single dose; HOP-62, Non-small cell lung cancer; read-out: Cell Growth inhibition Percent
Description: as §1, §2, §3, §4

SN12C = test: NCI-60 single-dose antiproliferative assay (SRB); type: cell-based; settings: Homo sapiens, 10 μM single dose, Renal cancer, read-out: Cell Growth inhibition Percent
Description: as §1, §2, §3, §4

NCI-H522 = test: NCI-60 single-dose antiproliferative assay (SRB); type: cell-based; settings: Homo sapiens; 10 μM single dose; NCI-H522, Non-small cell lung cancer; read-out: Cell Growth inhibition Percent
Description: as §1, §2, §3, §4

KM12 = test: NCI-60 single-dose antiproliferative assay (SRB); type: cell-based; settings: Homo sapiens; 10 μM single dose; KM12, Colon cancer; read-out: Cell Growth inhibition Percent
Description: as §1, §2, §3, §4

T-47D = test: NCI-60 single-dose antiproliferative assay (SRB); type: cell-based; settings: Homo sapiens, T47D, 10 μM single dose, Breast cancer, read-out: Cell Growth inhibition Percent
Description: as §1, §2, §3, §4

K-562 = test: NCI-60 single-dose antiproliferative assay (SRB); type: cell-based; settings: Homo sapiens, K562; 10 μM single dose; K-562, Leukemia; read-out: Cell Growth inhibition Percent
Description: as §1, §2, §3, §4

HCT-116 = test: NCI-60 single-dose antiproliferative assay (SRB); type: cell-based; settings: Homo sapiens; 10 μM single dose; HCT-116, Colon cancer; read-out: Cell Growth inhibition Percent
Description: as §1, §2, §3, §4

CAKI-1 = test: NCI-60 single-dose antiproliferative assay (SRB); type: cell-based; settings: Homo sapiens; 10 μM single dose; CAKI-1, Renal cancer; read-out: Cell Growth inhibition Percent
Description: as §1, §2, §3, §4

NCI-H23 = test: NCI-60 single-dose antiproliferative assay (SRB); type: cell-based; settings: Homo sapiens; 10 μM single dose; NCI-H23, Non-small cell lung cancer; read-out: Cell Growth inhibition Percent
Description: as §1, §2, §3, §4

EKVX = test: NCI-60 single-dose antiproliferative assay (SRB); type: cell-based; settings: Homo sapiens, 10 μM single dose, Non-small cell lung cancer, read-out: Cell Growth inhibition Percent
Description: as §1, §2, §3, §4

SR = test: NCI-60 single-dose antiproliferative assay (SRB); type: cell-based; settings: Homo sapiens, 10 μM single dose, Leukemia, read-out: Cell Growth inhibition Percent
Description: as §1, §2, §3, §4

SK-MEL-5 = test: NCI-60 single-dose antiproliferative assay (SRB); type: cell-based; settings: Homo sapiens; 10 μM single dose; SK-MEL-5, Melanoma; read-out: Cell Growth inhibition Percent
Description: as §1, §2, §3, §4

PC-3 = test: NCI-60 single-dose antiproliferative assay (SRB); type: cell-based; settings: Homo sapiens; 10 μM single dose; PC-3, Prostate cancer; read-out: Cell Growth inhibition Percent
Description: as §1, §2, §3, §4

HOP-92 = test: NCI-60 single-dose antiproliferative assay (SRB); type: cell-based; settings: Homo sapiens; 10 μM single dose; HOP-92, Non-small cell lung cancer; read-out: Cell Growth inhibition Percent
Description: as §1, §2, §3, §4

hCA XII = hCA XII (Homo sapiens, UniProt O43570); test: Stopped flow CO2 hydrase assay; settings: for Selectivity ratio I/XII: Ki hCA I / Ki hCA XII; for Selectivity ratio II/XII: Ki hCA II / Ki hCA XII
Sequence of hCA XII (O43570 25-354): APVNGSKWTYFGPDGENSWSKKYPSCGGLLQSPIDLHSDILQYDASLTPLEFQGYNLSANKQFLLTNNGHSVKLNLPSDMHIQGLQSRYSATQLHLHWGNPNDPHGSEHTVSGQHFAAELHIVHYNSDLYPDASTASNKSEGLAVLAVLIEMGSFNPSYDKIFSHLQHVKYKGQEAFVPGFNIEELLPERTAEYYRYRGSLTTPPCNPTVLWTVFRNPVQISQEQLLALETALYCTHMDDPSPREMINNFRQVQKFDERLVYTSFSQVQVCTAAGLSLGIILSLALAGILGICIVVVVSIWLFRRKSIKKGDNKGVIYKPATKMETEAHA

hCA IX = hCA IX (Homo sapiens, UniProt Q16790); test: Stopped flow CO2 hydrase assay; settings: for Selectivity ratio I/IX: Ki hCA I / Ki hCA IX; for Selectivity ratio II/IX: Ki hCA II / Ki hCA IX
hCA II = hCA II (Homo sapiens, UniProt P00918); test: Stopped flow CO2 hydrase assay
UO-31 = test: NCI-60 single-dose antiproliferative assay (SRB); type: cell-based, human; settings: Homo sapiens, UO-31, 10 μM single dose; UO-31, Renal cancer; read-out: Cell Growth inhibition Percent
Description: as §1, §2, §3, §4

[1] = Fig. 2; read-out: cytotoxicity average IC50; cited from earlier work
OVCAR-8 = test: NCI-60 single-dose antiproliferative assay (SRB); type: cell-based; settings: Homo sapiens; 10 μM single dose; OVCAR-8, Ovarian Cancer; read-out: Cell Growth inhibition Percent
Description: as §1, §2, §3, §4

ACHN = test: NCI-60 single-dose antiproliferative assay (SRB); type: cell-based; settings: Homo sapiens, 10 μM single dose, Renal cancer, read-out: Cell Growth inhibition Percent
Description: as §1, §2, §3, §4

FGFRI = settings: FGFR-1, inhibitor co-crystallized in PDB ID: 4V01; ref 5 (supplement); read-out: IC50; cited from earlier work

Sequence of hCA I (P00915 whole entry): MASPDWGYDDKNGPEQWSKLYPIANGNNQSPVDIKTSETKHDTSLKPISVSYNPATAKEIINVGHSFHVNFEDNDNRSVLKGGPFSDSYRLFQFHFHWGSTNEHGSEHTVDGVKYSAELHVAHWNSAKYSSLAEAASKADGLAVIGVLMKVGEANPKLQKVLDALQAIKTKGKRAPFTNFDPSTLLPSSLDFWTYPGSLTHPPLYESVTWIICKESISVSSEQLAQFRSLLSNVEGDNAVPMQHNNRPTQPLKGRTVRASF

| SMILES | Ki (hCA I) | Ki (hCA XII) | Ki (hCA IX) | melting point | Ki (hCA II) | Selectivity ratio I/XII (hCA XII) | Selectivity ratio II/XII (hCA XII) | Selectivity ratio I/IX (hCA IX) | Selectivity ratio II/IX (hCA IX) | other results |
| --- | --- | --- | --- | --- | --- | --- | --- | --- | --- | --- |
| O=C(Nc1ccc(NC=C2C(=O)Nc3ccccc32)cc1)Nc1ccc(S(=O)(=O)Nc2ncccn2)cc1 [Compound 15b, 4-{3-[4-({[2-Oxoindolin-3-ylidene]methyl}amino)phenyl]ureido}-N-(pyrimidin-2-yl)benzenesulfonamide] | > 10000 nM | > 10000 nM | > 10000 nM | > 300 °C | > 10000 nM | – | – | – | – | inhibition at 10 µM (HCT-15): 2.59%; inhibition at 10 µM (NCI-H226): 3.3%; inhibition at 10 µM (MCF7): 15%; inhibition at 10 µM (SNB-75): 1.02%; inhibition at 10 µM (HOP-62): 1.01%; inhibition at 10 µM (SN12C): 1.23%; inhibition at 10 µM (NCI-H522): 4.97%; inhibition at 10 µM (KM12): 49.1%; inhibition at 10 µM (T-47D): 7.81%; inhibition at 10 µM (K-562): 2.05%; inhibition at 10 µM (HCT-116): 7.3%; inhibition at 10 µM (CAKI-1): 5.21%; inhibition at 10 µM (NCI-H23): 72.8%; inhibition at 10 µM (EKVX): 1.92%; inhibition at 10 µM (SR): 3.55%; inhibition at 10 µM (SK-MEL-5): 0.02%; inhibition at 10 µM (PC-3): 5.91%; inhibition at 10 µM (HOP-92): 5.79%; inhibition at 10 µM (UO-31): 18.3% |
| O=C1Nc2ccccc2C1=CNC1=NS(=O)(=O)c2ccccc21 [Compound 4a, 3-{[(1,1-Dioxidobenzo[d]isothiazol-3-yl)amino]methylene}indolin-2-one] | > 10000 nM | > 10000 nM | > 10000 nM | 195 to 199 °C | 8950 nM | – | – | – | – | – |
| O=C1Nc2ccccc2C1=CNc1ccc(S(=O)(=O)Nc2ncccn2)cc1 [Compound 4b, 4-{[(2-Oxoindolin-3-ylidene)methyl]amino}-N-(pyrimidin-2-yl)benzenesulfonamide] | > 10000 nM | > 10000 nM | > 10000 nM | 238 to 240 °C | > 10000 nM | – | – | – | – | – |
| O=C1Nc2ccccc2C1=CNc1ccc(C(=O)Nc2nccs2)cc1 [Compound 9c, 4-{[(2-Oxoindolin-3-ylidene)methyl]amino}-N-(thiazol-2-yl)benzamide] | > 10000 nM | > 10000 nM | > 10000 nM | > 300 °C | > 10000 nM | – | – | – | – | – |
| NS(=O)(=O)OC=C1C(=O)Nc2ccccc21 [Compound 7, (2-Oxoindolin-3-ylidene)methyl sulfamate] | 6240 nM | 133 nM | 941 nM | 165 to 170 °C | 5580 nM | 46.89 | 41.97 | 6.63 | 5.93 | – |
| NS(=O)(=O)c1ccc(NC=CC(=O)c2ccc(NC=C3C(=O)Nc4ccccc43)cc2)cc1 [Compound 13a, 4-{[-3-Oxo-3-(4-{[(-2-oxoindolin-3-ylidene)methyl]amino}phenyl)prop-1-en-1-yl]amino}benzenesulfonamide] | 483 nM | 183 nM | 91.3 nM | 275 to 278 °C | 307 nM | 2.64 | 1.68 | 5.29 | 3.36 | – |
| O=C1Nc2ccccc2C1=CNc1ccc(CNc2nccs2)cc1 [Compound 11c, 3-{[(4-((Thiazol-2-ylamino)methyl)phenyl)amino]methylene}indolin-2-one] | > 10000 nM | > 10000 nM | > 10000 nM | 150 to 153 °C | > 10000 nM | – | – | – | – | – |
| O=C1Nc2ccc(Cl)cc2/C1=N/Nc1nc(-c2ccccc2)cs1 [XIV] | – | – | – | – | – | – | – | – | – | IC50 [1]: 4660 nM |
| NS(=O)(=O)c1ccc(NC(=O)Nc2ccc(NC=C3C(=O)Nc4ccccc43)cc2)cc1 [Compound 15a, 4-{3-[4-({[2-Oxoindolin-3-ylidene]methyl}amino)phenyl]ureido}benzenesulfonamide] | 845 nM | 175 nM | 863 nM | – | 762 nM | 4.83 | 4.36 | 0.98 | 0.88 | – |
| NS(=O)(=O)c1ccc(NC(=O)c2ccc(NC=C3C(=O)Nc4ccccc43)cc2)cc1 [Compound 9a, 4-{[(2-Oxoindolin-3-ylidene)methyl]amino}-N-(4-sulfamoylphenyl)benzamide] | 332 nM | 59.4 nM | 68.8 nM | – | 313 nM | 5.59 | 5.27 | 4.83 | 4.55 | inhibition at 10 µM (MCF7): 6.01%; inhibition at 10 µM (SNB-75): 4.88%; inhibition at 10 µM (HOP-62): 2.73%; inhibition at 10 µM (NCI-H522): 5.55%; inhibition at 10 µM (OVCAR-8): 0.63%; inhibition at 10 µM (ACHN): 1.9%; inhibition at 10 µM (CAKI-1): 8.65%; inhibition at 10 µM (HOP-92): 6.83%; inhibition at 10 µM (UO-31): 18% |
| Cc1ccc(C(=O)Nc2ccc(CN3CCN(C)CC3)c(C(F)(F)F)c2)cc1C#Cc1cnc2cccnn12 [ponatinib] | – | – | – | – | – | – | – | – | – | IC50 (FGFRI): 0.7 nM |

— PMC10353187, “Discovery of a new potent oxindole multi-kinase inhibitor among a series of designed 3-alkenyl-oxindoles with ancillary carbonic anhydrase inhibitory activity as antiproliferative agents” (BMC Chemistry, 2023)
